The values that follow come from patent publication US8389513B2, “2-amino-5,5-difluoro-5,6-dihydro-4H-[1,3]oxazin-4-yl)-phenyl]-amides” (Hoffmann-La Roche Inc., priority 2009, dated 2013).

Where a name gives a salt, the structure may show the parent alone.

T2 sequence (P56817 46-501): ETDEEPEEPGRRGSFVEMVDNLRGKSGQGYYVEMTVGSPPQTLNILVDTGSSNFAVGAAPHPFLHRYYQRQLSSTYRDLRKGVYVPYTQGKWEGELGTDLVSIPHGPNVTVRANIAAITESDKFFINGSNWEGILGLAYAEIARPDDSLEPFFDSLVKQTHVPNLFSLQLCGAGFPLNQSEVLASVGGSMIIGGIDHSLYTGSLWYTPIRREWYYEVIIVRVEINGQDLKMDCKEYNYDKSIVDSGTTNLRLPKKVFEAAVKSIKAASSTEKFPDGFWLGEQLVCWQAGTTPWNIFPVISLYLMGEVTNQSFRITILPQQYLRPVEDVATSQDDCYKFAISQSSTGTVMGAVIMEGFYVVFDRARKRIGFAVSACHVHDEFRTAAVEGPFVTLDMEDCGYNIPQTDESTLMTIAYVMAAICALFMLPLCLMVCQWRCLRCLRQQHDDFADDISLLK

One assay deals with T1, BACE2 (Rattus norvegicus, UniProt Q6IE75).
T1 construct: endogenous cellular BACE2 in the Ins1e rat cell line; endogenous in cells; host or cells: INS-TMEM27 (INS1e-derived rat cell line with TetOn-inducible full-length hTMEM27)
T1 sequence (Q6IE75 63-514): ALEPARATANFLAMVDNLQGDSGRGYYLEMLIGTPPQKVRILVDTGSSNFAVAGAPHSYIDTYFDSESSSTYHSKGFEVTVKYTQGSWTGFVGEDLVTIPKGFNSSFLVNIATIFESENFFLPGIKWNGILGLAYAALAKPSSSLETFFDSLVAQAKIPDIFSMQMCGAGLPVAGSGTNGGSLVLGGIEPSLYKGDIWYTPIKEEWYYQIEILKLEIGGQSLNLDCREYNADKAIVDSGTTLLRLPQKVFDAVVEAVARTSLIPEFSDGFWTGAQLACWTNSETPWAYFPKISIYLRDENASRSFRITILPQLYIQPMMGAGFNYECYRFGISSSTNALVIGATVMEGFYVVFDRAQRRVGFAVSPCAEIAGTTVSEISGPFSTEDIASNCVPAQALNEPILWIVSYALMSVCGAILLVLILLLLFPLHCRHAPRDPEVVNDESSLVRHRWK
In words: Assay for BACE inhibition by measuring cellular TMEM27 cleavage. It is filed as cell-based. The following applies: INS-TMEM27 cells (INS1e-derived); shed TMEM27 by ELISA; read-out: BACE2 cell act. IC50. An excerpt:
Assay for BACE Inhibition by Measuring Cellular TMEM27 Cleavage:
The assay uses the principle of inhibition of human TMEM27 cleavage by endogenous cellular BACE2 in the Ins1e rat cell line and shedding from the cell surface into the culture medium, followed by detection in an ELISA assay. Inhibition of BACE2 prevents the cleavage and shedding in a dose-dependent manner.
The stable cell line “INS-TMEM27” represents an INS1e-derived cell line with inducible expression (using the TetOn system) of full-length hTMEM27 in a doxycycline-dependent manner. The cells are cultured throughout the experiment in RPMI1640+Glutamax (Invitrogen) Penicillin/Streptomycin, 10% Fetal bovine serum, […] pyruvate, […] beta-mercatptoethanol, 100 micrograms/ml G418 and 100 microgram/ml hygromycin and are grown inadherent culture at 37° C. in a standard CO2 cell culture incubator. INS-TMEM27 cells are seeded in 96-well plates. After 2 days in culture, BACE2 inhibitor is added in a range of concentrations as required by the assay and after a further two hours, doxycycline is added to a final concentration of 500 ng/ml. The cells are incubated for a further 46 hours and the supernatant harvested for detection of shed TMEM27.
An ELISA assay (using a pair of mouse anti-human-TMEM27 antibodies, raised against the extracellular domain of TMEM27) is used for detection of TMEM27 in the culture medium. An EC50 for BACE2 inhibition is calculated using the ELISA readout for each inhibitor concentration with standard curve-fitting software such as XLFit for the Excel spreadsheet program.
Background: ELISA stands for enzyme-linked immunosorbent assay.
What is called IC50 is the midpoint of a concentration-inhibition curve. As for `C[C@]1(c2cc(NC(=O)c3ccc(F)cn3)ccc2F)N=C(N)OCC1(F)F` [Example 2, 5-Fluoro-pyridine-2-carboxylic acid [3-((R)-2-amino-5,5-difluoro-4-methyl-5,6-dihydro-4H-[1,3]oxazin-4-yl)-4-fluoro-phenyl]-amide], the IC50 was found to be 56 nM.

As for `C[C@]1(c2cc(NC(=O)c3ccccn3)ccc2F)N=C(N)OCC1(F)F` [Example 9, Pyridine-2-carboxylic acid [3-((R)-2-amino-5,5-difluoro-4-methyl-5,6-dihydro-4H-[1,3]oxazin-4-yl)-4-fluoro-phenyl]-amide], the IC50 is 82 nM.

A further assay addresses T2, BACE1 (Homo sapiens, UniProt P56817).
T2 construct: Human HEK293 cells which are stably transfected with a vector expressing a cDNA of the human APP wt gene (APP695); endogenous in cells; host or cells: HEK293 stably transfected with human APP695 wt
In words: Cellular Aβ-lowering assay (Aβ40 ELISA). It is filed as cell-based. The following applies: HEK293 cells stably expressing human APP695; Aβ40 in culture supernatant; read-out: BACE1 cell act. Aβ40 IC50. The method, then:
Cellular Aβ-Lowering Assay:
Human HEK293 cells which are stably transfected with a vector expressing a cDNA of the human APP wt gene (APP695) were used to assess the potency of the compounds in a cellular assay. The cells were seeded in 96-well microtiter plates in cell culture medium (Iscove, plus 10% (v/v) fetal bovine serum, glutamine, penicillin/streptomycin) to about 80% confluence and the compounds were added at a 10× concentration in 1/10 volume of medium without FCS containing 8% DMSO (final concentration of DMSO was kept at 0.8% v/v). After 18-20 hrs incubation at 37° C. and 5% CO2 in a humidified incubator the culture supernatant was harvested for the determination of Aβ40 concentrations. […] Subsequently the wells of the microtiter plate were washed extensively with Tris-buffered saline containing 0.05% Tween 20 and the assay was developed with tetramethylbenzidine/H2O2 in citric acid buffer. After stopping the reaction with one volume 1 NH2SO4 the reaction was measured in an ELISA reader at 450 nm wavelength. The concentrations of Aβ in the culture supernatants were calculated from a standard curve obtained with known amounts of pure Aβ peptide.
For the compound `CCn1cc(Cl)c(C(=O)Nc2ccc(F)c([C@@]3(C)N=C(N)OCC3(F)F)c2)n1` [Example 77, 4-Chloro-1-ethyl-1H-pyrazole-3-carboxylic acid [3-((R)-2-amino-5,5-difluoro-4-methyl-5,6-dihydro-4H-[1,3]oxazin-4-yl)-4-fluoro-phenyl]-amide], the IC50 worked out at 100 nM.

On to `C[C@]1(c2cc(NC(=O)/C=C/c3ccco3)ccc2F)N=C(N)OCC1(F)F` [Example 82, (E)-N-[3-((R)-2-Amino-5,5-difluoro-4-methyl-5,6-dihydro-4H-[1,3]oxazin-4-yl)-4-fluoro-phenyl]-3-furan-2-yl-acrylamide], for which the IC50 worked out at 910 nM.

For `CC1(C)OC(N)=N[C@](C)(c2cc(NC(=O)c3ccc(OCC(F)F)cn3)ccc2F)C1(F)F` [Example 28, 5-(2,2-Difluoro-ethoxy)-pyridine-2-carboxylic acid [3-((R)-2-amino-5,5-difluoro-4,6,6-trimethyl-5,6-dihydro-4H-[1,3]oxazin-4-yl)-4-fluoro-phenyl]-amide], the IC50 came to 200 nM.

On to `C[C@]1(c2cc(NC(=O)c3nn(CC(F)(F)F)cc3Cl)ccc2F)N=C(N)OCC1(F)F` [Example 78, 4-Chloro-1-(2,2,2-trifluoro-ethyl)-1H-pyrazole-3-carboxylic acid [3-((R)-2-amino-5,5-difluoro-4-methyl-5,6-dihydro-4H-[1,3]oxazin-4-yl)-4-fluoro-phenyl]-amide], for which the IC50 is 1770 nM.

With `C[C@]1(c2cc(NC(=O)c3ccc(C#CC4CC4)cn3)ccc2F)N=C(N)OCC1(F)F` [Example 40, 5-Cyclopropylethynyl-pyridine-2-carboxylic acid [3-((R)-2-amino-5,5-difluoro-4-methyl-5,6-dihydro-4H-[1,3]oxazin-4-yl)-4-fluoro-phenyl]-amide], the IC50 was 460 nM.

On to `C[C@]1(c2cc(NC(=O)c3cnc(OCC4CC4)cn3)ccc2F)N=C(N)OCC1(F)F` [Example 46, 5-Cyclopropylmethoxy-pyrazine-2-carboxylic acid [3-((R)-2-amino-5,5-difluoro-4-methyl-5,6-dihydro-4H-[1,3]oxazin-4-yl)-4-fluoro-phenyl]-amide], for which the IC50 was determined as 70 nM.

For the compound `C[C@]1(c2cc(NC(=O)c3ccc(C#N)c[n+]3[O-])ccc2F)N=C(N)OCC1(F)F` [Example 83, 5-Cyano-1-oxy-pyridine-2-carboxylic acid [3-((R)-2-amino-5,5-difluoro-4-methyl-5,6-dihydro-4H-[1,3]oxazin-4-yl)-4-fluoro-phenyl]-amide], the IC50 was found to be 310 nM.

As for `CC1(C)OC(N)=N[C@](C)(c2cc(NC(=O)c3ccc(OCC(F)(F)C(F)F)cn3)ccc2F)C1(F)F` [Example 30, 5-(2,2,3,3-Tetrafluoro-propoxy)-pyridine-2-carboxylic acid [3-((R)-2-amino-5,5-difluoro-4,6,6-trimethyl-5,6-dihydro-4H-[1,3]oxazin-4-yl)-4-fluoro-phenyl]-amide], the IC50 was found to be 230 nM.

As for `CC1(C)OC(N)=N[C@](C)(c2cc(NC(=O)c3ccc(OCC4CC4)nc3)ccc2F)C1(F)F` [Example 31, N-[3-((R)-2-Amino-5,5-difluoro-4,6,6-trimethyl-5,6-dihydro-4H-[1,3]oxazin-4-yl)-4-fluoro-phenyl]-6-cyclopropylmethoxy-nicotinamide], the IC50 came to 2810 nM.

With `CC1(C)OC(N)=N[C@](C)(c2cc(NC(=O)c3cnc(OCC4CC4)cn3)ccc2F)C1(F)F` [Example 36, 5-Cyclopropylmethoxy-pyrazine-2-carboxylic acid [3-((R)-2-amino-5,5-difluoro-4,6,6-trimethyl-5,6-dihydro-4H-[1,3]oxazin-4-yl)-4-fluoro-phenyl]-amide], the IC50 is 2460 nM.

As for `C[C@]1(c2cc(NC(=O)c3coc(CCl)n3)ccc2F)N=C(N)OCC1(F)F` [Example 57, 2-Chloromethyl-oxazole-4-carboxylic acid [3-((R)-2-amino-5,5-difluoro-4-methyl-5,6-dihydro-4H-[1,3]oxazin-4-yl)-4-fluoro-phenyl]-amide], the IC50 came to 73 nM.

Turning to `CC1(C)OC(N)=N[C@](C)(c2cc(NC(=O)c3ccn(C(F)F)n3)ccc2F)C1(F)F` [Example 38, 1-Difluoromethyl-1H-pyrazole-3-carboxylic acid [3-((R)-2-amino-5,5-difluoro-4,6,6-trimethyl-5,6-dihydro-4H-[1,3]oxazin-4-yl)-4-fluoro-phenyl]-amide], the IC50 turned out to be 6 nM.

`CCc1nc(C(=O)Nc2ccc(F)c([C@@]3(C)N=C(N)OCC3(F)F)c2)co1` [Example 56, 2-Ethyl-oxazole-4-carboxylic acid [3-((R)-2-amino-5,5-difluoro-4-methyl-5,6-dihydro-4H-[1,3]oxazin-4-yl)-4-fluoro-phenyl]-amide]: the IC50 turned out to be 140 nM.

As to `C[C@]1(c2cc(NC(=O)c3cocn3)ccc2F)N=C(N)OCC1(F)F` [Example 55, Oxazole-4-carboxylic acid [3-((R)-2-amino-5,5-difluoro-4-methyl-5,6-dihydro-4H-[1,3]oxazin-4-yl)-4-fluoro-phenyl]-amide], the half-inhibitory concentration (IC50) was determined as 495 nM.

`C[C@]1(c2cc(NC(=O)c3ccc([N+](=O)[O-])o3)ccc2F)N=C(N)OCC1(F)F` [Example 81, 5-Nitro-furan-2-carboxylic acid [3-((R)-2-amino-5,5-difluoro-4-methyl-5,6-dihydro-4H-[1,3]oxazin-4-yl)-4-fluoro-phenyl]-amide]: the IC50 was 1900 nM.

As to `C[C@]1(c2cc(NC(=O)c3ccc(C(N)=O)cn3)ccc2F)N=C(N)OCC1(F)F` [Example 72], the IC50 was found to be 230 nM.

On to `C[C@]1(c2cc(NC(=O)c3coc(CF)n3)ccc2F)N=C(N)OCC1(F)F` [Example 79, 2-Fluoromethyl-oxazole-4-carboxylic acid [3-((R)-2-amino-5,5-difluoro-4-methyl-5,6-dihydro-4H-[1,3]oxazin-4-yl)-4-fluoro-phenyl]-amide formate], for which the IC50 amounted to 3 nM.

Regarding `CC(=O)Nc1ccc(F)c([C@@]2(C)N=C(N)OCC2(F)F)c1` [Example 73, N-[3-((R)-2-Amino-5,5-difluoro-4-methyl-5,6-dihydro-4H-[1,3]oxazin-4-yl)-4-fluoro-phenyl]-acetamide], the IC50 came to 180 nM.

For `Cc1conc1C(=O)Nc1ccc(F)c([C@@]2(C)N=C(N)OCC2(F)F)c1` [Example 61, 4-Methyl-isoxazole-3-carboxylic acid [3-((R)-2-amino-5,5-difluoro-4-methyl-5,6-dihydro-4H-[1,3]oxazin-4-yl)-4-fluoro-phenyl]-amide], the IC50 was determined as 305 nM.

Regarding `CCc1ocnc1C(=O)Nc1ccc(F)c([C@@]2(C)N=C(N)OCC2(F)F)c1` [Example 69, formate], the IC50 is 1480 nM.
